The results in this text go back to ChEMBL document CHEMBL1155852, “Novel inhibitors of anthrax edema factor” (Bioorg Med Chem, 2008).

In assay [1] the target is T1, Calmodulin-sensitive adenylate cyclase (Bacillus anthracis, UniProt P40136).
T1 sequence (P40136 whole entry): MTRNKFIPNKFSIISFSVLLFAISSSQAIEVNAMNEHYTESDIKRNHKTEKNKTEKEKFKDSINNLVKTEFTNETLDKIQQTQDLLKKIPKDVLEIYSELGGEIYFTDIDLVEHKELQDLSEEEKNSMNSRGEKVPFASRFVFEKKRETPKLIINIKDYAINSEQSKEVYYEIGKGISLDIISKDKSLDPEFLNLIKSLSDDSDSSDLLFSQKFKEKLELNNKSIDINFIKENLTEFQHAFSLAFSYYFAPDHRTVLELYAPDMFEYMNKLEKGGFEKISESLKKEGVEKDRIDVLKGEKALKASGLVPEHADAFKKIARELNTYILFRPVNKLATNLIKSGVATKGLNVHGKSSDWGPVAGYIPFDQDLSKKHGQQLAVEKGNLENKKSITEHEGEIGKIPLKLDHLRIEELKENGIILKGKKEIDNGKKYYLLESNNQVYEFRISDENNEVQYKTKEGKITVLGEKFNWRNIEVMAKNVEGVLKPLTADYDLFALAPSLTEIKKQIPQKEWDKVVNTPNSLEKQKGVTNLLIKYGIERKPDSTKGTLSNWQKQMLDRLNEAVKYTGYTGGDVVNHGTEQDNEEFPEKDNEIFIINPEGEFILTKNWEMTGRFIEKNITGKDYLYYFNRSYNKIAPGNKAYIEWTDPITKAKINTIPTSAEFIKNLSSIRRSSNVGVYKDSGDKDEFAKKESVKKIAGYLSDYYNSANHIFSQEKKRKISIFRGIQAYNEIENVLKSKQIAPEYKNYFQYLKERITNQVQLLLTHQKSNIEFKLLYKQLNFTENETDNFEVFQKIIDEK
In words: Inhibition of Bacillus anthracis edema factor-induced cAMP secretion in mouse RAW264.7 cells after 4 hrs by ELISA. It counts as cell-based. (In an ELISA, binding on a coated surface is turned into a signal by an enzyme label.)

The target in assay [2] is T2, Calmodulin-sensitive adenylate cyclase (Bacillus anthracis) (UniProt P40136).
T2 sequence (whole entry): T1 sequence (P40136 whole entry)
Nature of the assay: Inhibition of Bacillus anthracis edema factor-induced cAMP secretion in mouse RAW264.7 cells at 100 uM after 4 hrs by ELISA. It counts as cell-based.

Activity calls are given as the source filed them. The rule behind the calls is not given here.

For orientation: IC50 means the concentration that inhibits the measured activity by half. Take `O=C(O)c1cccc(NC(=O)c2cccc3c2C(=O)c2ccccc2-3)c1`: in assay [1], the IC50 worked out at 1.83 µM. On the same count and under the same terms, the figure for `O=C(O)c1ccc(/N=C/c2c3ccccc3cc3ccccc23)cc1O` is 8.5 µM. As to `CCCCC[C@H](O)/C=C/[C@H]1[C@H](n2ccnc2)CC(=O)[C@@H]1C/C=C\CCCC(=O)O`, the outcome in assay [2] was Active. Compound `COc1cccc([C@H]2Nc3ccc(C(=O)O)cc3[C@@H]3C=CC[C@H]23)c1` came in with an IC50 in assay [1] of 1.73 µM.
